From EP0471841A1, “SULFONAMIDE DERIVATIVE AND PHARMACEUTICAL COMPOSITION CONTAINING THE SAME” (Asahi Kasei Kogyo Kabushiki Kaisha, priority 1990, dated 1991)
Structures can show the parent of a compound that is named as a salt.

Key:
trachea = experiment: Effect on trachea in vivo: inhibition of histamine-induced tracheal contraction (modified Konzett-Rössler method); conditions: Cavia porcellus, iv, 0.05 h; compound 1 mg/kg through the femoral vein, histamine 20 µg/kg through the femoral vein 3 minutes later; anesthetized male guinea pigs; compounds used as hydrochloride; 3 animals per group; read-out: Inhibition of tracheal con-traction
Excerpt: Further, the inhibiting action of the compound of the present invention on the histamine-induced contraction of the trachea of a guinea pig was examined by in vivo experiment. As a result, the in vivo bronchodilation action was confirmed.
According to a modified method of Konzett-Rössler method [see J. Martinez et al, Bronchial Arterial Injections, vol. 33, 295, (1961); Masaaki Takai et al, Oyo Yakuri (Applied Pharmacology), vol. 17, p.345, (1979)], effect of the compounds of the present invention on trachea in vivo was examined. Of compounds 3, 4, 30, 31, 36, 38, 48, 54 and 55, which were used herein, compounds other than acid addition salts were individually subjected to testing in the form of a hydrochloride which was obtained in the same manner as described in Example 61. Urethane was intraperitoneally administered to male guinea pigs weighing 350 to 600 g (Hartley strain, Kuroda Junkei Dobutsu) in an amount of 1.5 g/kg of body weight to anesthetize the animals. Then, cannulae were inserted into the trachea and femoral vein of each animal under urethane anesthesia and fixed. The inserted tracheal cannula was connected to a respirator for small animal (model 1683, manufactured by Harvard Co., Ltd.) and a pneumotachometer (model MHF-1200, manufactured by Nihon Kohden Corp.) through a bottle containing water, the water surface of which was adjusted to a level which is 10 cm high from the bottom, and a respiratory volume was determined.
Each of the above-mentioned compounds of the present invention was administered to guinea pigs through the femoral vein in an amount of 1 mg/kg of body weight. After 3 minutes from the administration, histamine was administered to the same guinea pigs through the femoral vein in an amount of 20 µg/kg of body weight, to thereby induce contraction of trachea and the inhibition of the histamine-induced tracheal contraction by each of the above-described compounds of the present invention was determined. For comparison, the inhibition of histamine-induced tracheal contraction by each of aminophylline, comparative compound (1) and comparative compound (2) was determined in substantially the same manner as described above. As a solvent for each compound, physiological saline was used. The number of the guinea pigs tested in each group was 3.

[1] = tested on: tracheal specimens excised from guinea pigs; experiment: Inhibitory effect on PGF2α-induced contraction of tracheal specimens excised from guinea pigs (Magnus tube); assay type: cell-based; conditions: Cavia porcellus, dose required for relaxing PGF2α-induced contraction to 50 %; PGF2α final concentration: 1 µm; compounds used as hydrochloride; 3 specimens per group; read-out: PGF2α-induced contraction ED50
Experimental: (§1) The bronchial smooth muscle-relaxing action of the sulfonamide derivative of the present invention was evaluated by the effect on suppression of KCl-induced contraction and PGF2α-induced contraction of bronchial specimens excised from guinea pigs.
Tracheal specimens excised from male guinea pigs weighing 350 to 500 g (Hartley strain, Kuroda Junkei Dobutsu) were contracted in substantially the same manner as in Application Example 1 except that PGF2α (final concentration: 1 µm) was used instead of KCl. After the contraction of the tracheal specimens became stable, each of the compounds (hydrochloride) of the present invention was dissolved in distilled water or physiological saline, and the compound solution was cumulatively added into the Magnus tube in the same manner as in Application Example 1. The relaxing effect of each of the compounds of the present invention on the contracted specimens was evaluated and a dose-response curve was obtained. The dose required for relaxing PGF2α-induced contraction to 50 %, i.e., ED₅₀ was calculated form the dose-response curve. Of compounds 3, 4, 30, 31, 36, 38, 48, 54 and 55, which were imdividually used herein, compounds other than acid addition salts were used in the form of a hydrochloride which was obtained in the same manner as described in Example 61. For comparison, the same procedure as described above was repeated except that aminophylline, comparative compound (1) and comparative compound (2) were individually used instead of the compound of the present invention, to obtain an ED₅₀. The number of specimens in each group was 3.

[2] = tested on: tracheal specimens excised from guinea pigs; experiment: Inhibitory effect on KCl-induced contraction of tracheal specimens excised from guinea pigs (Magnus tube); assay type: cell-based; conditions: Cavia porcellus; dose required for relaxing KCl-induced contraction to 50 %; final KCl concentration: 20 mM; 37 °C; compounds other than acid addition salts used as hydrochloride; 3 specimens per group; read-out: ED₅₀ Effect on KCl-induced contraction
Experimental: as §1
According to a method in which tracheal specimens excised from guinea pigs were used (Takagi and Ozawa, "Yakubutsugaku Jikken (Experiments in Pharmacology)", pp.100-102, 1960, published by Nanzando Japan; and Fujiwara and Shibata, "Yakurigaku Kiso Jikenho (Methods of Fundamental Experiments in Pharmacology)" pp.131-134, 1982, published by Kyourin, Japan), relaxing effect of sulfonamide derivatives of the present invention on bronchial smooth muscle was examined. Of compounds (1) to (69) shown herein, compounds other than acid addition salts were individually used in the form of a hydrochloride which was obtained by the same method as described in Example 61.
From male guinea pigs weighing 350 to 500 g (Hartley strain, Kuroda Junkei Dobutsu), tracheas were excised and each of the excised tracheal specimens was hung in 20 ml of a Magnus tube filled with Krebs-Henseleit solution under isotonic conditions and the solution temperature was kept at 37 °C. An aqueous KCl solution was dropwise added into the Magnus tube (final KCl concentration: 20 mM) to contract the tracheal specimen. After the KCl-induced contraction became stable, each of the compounds of the present invention was dissolved in distilled water or physiological saline, and the compound solution was cumulatively added into the Magnus tube. The relaxing effect of each of the compounds of the present invention on contracted tracheal specimens was evaluated and a dose-response curve was obtained.
A dose required for relaxing KCl-induced contraction to 50 %, i.e., ED₅₀ was calculated from the dose-response curve. For comparison, the same method as described above was repeated except that aminophylline was used, to thereby determine an ED₅₀. The number of tracheal specimens in each group was 3.

Row | EC50 [1] | EC50 [2] | Structure (SMILES) | inhibition in vivo at 1 mg/kg (trachea)
1 | 23 µM | 5.2 µM | O=S(=O)(NCCNCc1ccc2c(c1)OCO2)c1cccc2cnccc12 [(3), N-[2(3,4-methylenedioxybenzylamino)ethyl]-5-isoquinolinesulfonamide] | 36%
2 | 5 µM | 10 µM | O=S(=O)(NCCNCc1ccc2c(c1)OCO2)c1cccc2c(O)nccc12 [(4), N-[2-(3,4-methylenedioxybenzylamino)ethyl]-1-hydroxy-5-isoquinolinesulfonamide hydrochloride] | 25%
3 | 43 µM | 16 µM | O=S(=O)(NCCN1CCN(Cc2ccc3c(c2)OCO3)CC1)c1cccc2cnccc12 [(30), 1-(5-isoquinolinesulfonylaminoethyl)-4-(3,4-methylenedioxybenzyl)piperazine] | 
4 | 31 µM | 13 µM | O=S(=O)(NCCN1CCCN(Cc2ccc3c(c2)OCO3)CC1)c1cccc2cnccc12 [(31), 1-(5-isoquinolinesulfonylaminoethyl)-4-(3,4-methylenedioxybenzyl)homopiperazine] | 
5 | 91 µM | 43 µM | O=S(=O)(NCCN1CCCNCC1)c1ccc(Cl)c2ncccc12 [(36), 1-(8-chloro-5-quinolinesulfonylaminoethyl)homopiperazine] | 
6 | 74 µM | 26 µM | O=S(=O)(NCCN1CCCN(Cc2ccc3c(c2)OCO3)CC1)c1ccc(Cl)c2ncccc12 [(38), 1-(8-chloro-5-quinolinesulfonylaminoethyl)-4-(3,4-methylenedioxybenzyl)homopiperazine] | 
7 |  | 91 µM | O=S(=O)(NCCN1CCCNCC1)c1cccc2ncccc12 [(44), 1-(5-quinolinesulfonylaminoethyl)homopiperazine] | 
8 |  | 84 µM | O=S(=O)(NCCN1CCCN(Cc2ccc3c(c2)OCO3)CC1)c1cccc2ncccc12 [(45), 1-(5-quinolinesulfonylaminoethyl)-4-(3,4-methylenedioxybenzyl)homopiperazine] | 
9 |  | 60 µM | CCOc1ccc(S(=O)(=O)NCCN2CCNCC2)c2cccnc12 [(47), 1-(8-ethoxy-5-quinolinesulfonylaminoethyl) piperazine] | 
10 | 82 µM | 37 µM | CCOc1ccc(S(=O)(=O)NCCN2CCCN(Cc3ccc4c(c3)OCO4)CC2)c2cccnc12 [(48), 1-(8-ethoxy-5-quinolinesulfonylaminoethyl)-4-(3,4-methylenedioxybenzyl)homopiperazine] | 33%
11 |  | 46 µM | CCOc1ccc(S(=O)(=O)NCCN2CCN(Cc3ccc4c(c3)OCO4)CC2)c2cccnc12 [(49), 1-(8-ethoxy-5-quinolinesulfonylaminoethyl)-4-(3,4-methylenedioxybenzyl)piperazine] | 
12 |  | 81 µM | CCOc1ccc(S(=O)(=O)NCCN2CCCN(Cc3ccc(Cl)cc3)CC2)c2cccnc12 [(50), 1-(8-ethoxy-5-quinolinesulfonylaminoethyl)-4-(4-chlorobenzyl)homopiperazine] | 
13 |  | 85 µM | CCOc1ccc(S(=O)(=O)NCCN2CCN(Cc3ccc(Cl)cc3)CC2)c2cccnc12 [(51), 1-(8-ethoxy-5-quinolinesulfonylaminoethyl)-4-(4-chlorobenzyl)piperazine] | 
14 |  | 102 µM | CCOc1ccc(S(=O)(=O)NCCN2CCCN(CCc3ccc(OC)c(OC)c3)CC2)c2cccnc12 [(52), 1-(8-ethoxy-5-quinolinesulfonylaminoethyl)-4-(3,4-dioxyphenethyl)homopiperazine] | 
15 |  | 120 µM | CCOc1ccc(S(=O)(=O)NCCN2CCN(CCc3ccc(OC)c(OC)c3)CC2)c2cccnc12 [(53), 1-(8-ethoxy-5-quinolinesulfonylaminoethyl)-4-(3,4-dimethoxyphenethyl)piperazine] | 
16 | 65 µM | 38 µM | O=S(=O)(c1ccc(Cl)c2ncccc12)N1CCCNCC1 [(54), 1-(8-chloro-5-quinolinesulfonyl)homopiperazine] | 30%
17 | 71 µM | 45 µM | CCOc1ccc(S(=O)(=O)N2CCCNCC2)c2cccnc12 [(55), 1-(8-ethoxy-5-quinolinesulfonyl)homopiperazine] | 23%
18 |  | 49 µM | O=S(=O)(c1ccc(Cl)c2ncccc12)N1CCNCC1 [(56), 1-(8-chloro-5-quinolinesulfonyl)piperazine] | 
19 |  | 57 µM | CCOc1ccc(S(=O)(=O)N2CCNCC2)c2cccnc12 [(57), 1-(8-ethoxy-5-quinolinesulfonyl)piperazine] | 
20 |  | 79 µM | O=S(=O)(c1cccc2ncccc12)N1CCCNCC1 [(58), 1-(5-quinolinesulfonyl)homopiperazine] | 
21 |  | 90 µM | O=S(=O)(c1cccc2ncccc12)N1CCNCC1 [(59), 1-(5-quinolinesulfonyl)piperazine] | 
22 |  | 110 µM | COc1ccc(CCNC(C)CNS(=O)(=O)c2ccc(Cl)c3ncccc23)cc1OC (centres unmarked) [(60), N-[2-(3,4-dimethoxyphenethylamino)-2-methylethyl]-8-chloro-5-quinolinesulfonamide] | 
23 | 101 µM |  | CCCCCCN(CCN)S(=O)(=O)c1cccc2cnccc12 [Comparative compound (1), N-(2-aminoethyl)-N-hexyl-5-isoquinolinesulfonamide hydrochloride, reference compound] | 9%
24 | 93 µM |  | NC1CCCN(S(=O)(=O)c2cccc3cnccc23)C1 (centres unmarked) [Comparative compound (2), 1-(5-isoquinolinesulfonyl)-3-aminopiperidine hydrochloride, reference compound] | 12%
25 |  | 86 µM | O=S(=O)(NCCNCc1ccc2c(c1)OCO2)c1cccc2ncccc12 [Compound (27), N-[2-(3,4-methylenedioxybenzylamino)ethyl]-5-quinolinesulfonamide] | 
26 |  | 51 µM | CCOc1ccc(S(=O)(=O)NCCN2CCCNCC2)c2cccnc12 [Compound (46), 1-(8-ethoxy-5-quinolinesulfonylaminoethyl) homopiperazine] | 

Row | Structure (SMILES) | EC50 [1] | EC50 [2] | inhibition in vivo at 1 mg/kg (trachea)
27 | Cn1c(=O)c2[nH]cnc2n(C)c1=O [Aminophylline, aminophylline, reference compound] | > 200 µM |  | 7%
